Some results are limits rather than exact numbers.

Drawing on patent publication US20250304567A1, “PYRROLIDIONE DERIVATIVES AS INHIBITORS OF NF KAPPA B INDUCING KINASE” (priority 2022, published 2025), this text covers IC50 for 19 compounds.

Test [1] deals with p-IKKa levels in L363 (NIK translocated multiple myeloma) cells. Kind of test: Effect of compounds on p-IKKa levels in L363 (NIK translocated multiple myeloma) cells (AlphaLISA SureFire Ultra p-IKKa Ser176/180). The format is cell-based, human. Conditions: Homo sapiens, L-363, p-IKKa levels in L363 cells; average if tested more than once; read-out: Assay 2 IC50. Put shortly:
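L363 multiple myeloma cells, BAFF-stimulated overnight (250 ng/ml), then 6 h at 37 °C with compound (11-point 1:3 series, 0.3% DMSO) plus BAFF and 10 μM MG132. p-IKKa Ser176/180 read by AlphaLISA SureFire Ultra; IC50 from sigmoidal fit normalised to stimulated and unstimulated controls.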

Test [2] has as its target Recombinant Human NF-kappaB-Inducing Kinase (NIK/MAP3K14) (Homo sapiens, UniProt Q99558). Kind of test: Inhibition of auto-phosphorylation of recombinant human NIK/MAP3K14 activity (AlphaScreen). Type of test: biochemical. The conditions noted are these: 5 μM ATP, 1 nM NIK, average if tested more than once. The method, boiled down:
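GST-tagged NIK (1 nM) auto-phosphorylation with 5 μM ATP, 2 h at 25 °C, pH 7.5 Tris buffer, 0.7% DMSO; stopped with anti-phospho-IKK Ser176/180 antibody and read by AlphaScreen. Signal normalized to full-activity and no-enzyme/no-ATP controls; IC50 from sigmoidal fit of % inhibition vs log concentration.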

Recombinant Human NF-kappaB-Inducing Kinase (NIK/MAP3K14), sequence (Q99558 whole entry): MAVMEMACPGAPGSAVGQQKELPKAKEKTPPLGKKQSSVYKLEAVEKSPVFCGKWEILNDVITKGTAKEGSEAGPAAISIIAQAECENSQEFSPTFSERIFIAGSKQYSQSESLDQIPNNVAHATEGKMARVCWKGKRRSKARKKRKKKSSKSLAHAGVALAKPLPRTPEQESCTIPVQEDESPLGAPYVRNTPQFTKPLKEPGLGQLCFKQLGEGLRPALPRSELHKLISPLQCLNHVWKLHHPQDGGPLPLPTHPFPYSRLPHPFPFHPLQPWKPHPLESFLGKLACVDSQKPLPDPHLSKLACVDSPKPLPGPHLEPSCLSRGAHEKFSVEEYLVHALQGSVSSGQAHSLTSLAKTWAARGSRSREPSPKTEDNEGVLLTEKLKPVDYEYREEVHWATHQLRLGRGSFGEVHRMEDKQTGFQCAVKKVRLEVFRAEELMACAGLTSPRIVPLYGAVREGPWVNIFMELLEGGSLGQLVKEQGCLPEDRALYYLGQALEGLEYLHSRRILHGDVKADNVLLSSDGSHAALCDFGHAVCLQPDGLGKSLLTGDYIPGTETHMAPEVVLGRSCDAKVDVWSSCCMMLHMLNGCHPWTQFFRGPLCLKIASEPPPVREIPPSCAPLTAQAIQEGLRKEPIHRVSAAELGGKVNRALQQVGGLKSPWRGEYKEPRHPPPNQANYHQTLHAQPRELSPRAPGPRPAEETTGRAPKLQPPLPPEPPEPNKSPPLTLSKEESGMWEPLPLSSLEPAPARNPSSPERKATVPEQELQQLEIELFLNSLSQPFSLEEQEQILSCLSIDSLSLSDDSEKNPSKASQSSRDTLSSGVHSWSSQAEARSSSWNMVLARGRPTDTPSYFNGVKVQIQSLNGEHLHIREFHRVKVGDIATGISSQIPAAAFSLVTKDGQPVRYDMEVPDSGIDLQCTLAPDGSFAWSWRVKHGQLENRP

Turning to `COc1nn(C)cc1Nc1nccc(-c2csc(-c3cccc([C@]4(O)CCN(C)C4=O)c3)n2)n1` [Example 104, (R)-3-hydroxy-3-(3-(4-(2-((3-methoxy-1-methyl-1H-pyrazol-4-yl)amino)pyrimidin-4-yl)thiazol-2-yl)phenyl)-1-methylpyrrolidin-2-one], the IC50 in test [1] and in test [2] was under 100 nM throughout.
As to `Cc1cc(Nc2nccc(-c3csc(-c4cccc([C@]5(O)CCN(C)C5=O)c4)n3)n2)ncn1` [Example 106, (R)-3-hydroxy-1-methyl-3-(3-(4-(2-((6-methylpyrimidin-4-yl)amino)pyrimidin-4-yl)thiazol-2-yl)phenyl)pyrrolidin-2-one], the IC50 is over 501 nM in test [1] and under 100 nM in test [2].
Taken in the same sequence, the figures for `COCCn1nc(C)cc1Nc1nccc(-c2csc(-c3cccc([C@]4(O)CCN(C)C4=O)c3)n2)n1` [Example 107, (R)-3-hydroxy-3-(3-(4-(2-((1-(2-methoxyethyl)-3-methyl-1H-pyrazol-5-yl)amino)pyrimidin-4-yl)thiazol-2-yl)phenyl)-1-methylpyrrolidin-2-one] were over 501 nM and over 501 nM.
On the same counts, the results for `CN1CC[C@@](O)(c2cccc(-c3nc(-c4ccnc(N[C@H]5CCC[C@@H]5O)n4)cs3)c2)C1=O` [Example 108, (R)-3-hydroxy-3-(3-(4-(2-(((1S,2S)-2-hydroxycyclopentyl)amino)pyrimidin-4-yl)thiazol-2-yl)phenyl)-1-methylpyrrolidin-2-one] are over 501 nM and 100 to 500 nM.
On the same counts, the results for `CN1CC[C@@](O)(c2cccc(-c3nc(-c4ccnc(N[C@H]5C[C@H](O)C5)n4)cs3)c2)C1=O` [Example 109, (R)-3-hydroxy-3-(3-(4-(2-(((1R,3R)-3-hydroxycyclobutyl)amino)pyrimidin-4-yl)thiazol-2-yl)phenyl)-1-methylpyrrolidin-2-one] are over 501 nM and 100 to 500 nM.
As for `Cc1ncc(CNc2nccc(-c3csc(-c4cccc([C@]5(O)CCN(C)C5=O)c4)n3)n2)o1` [Example 110, (R)-3-hydroxy-1-methyl-3-(3-(4-(2-(((2-methyloxazol-5-yl)methyl)amino)pyrimidin-4-yl)thiazol-2-yl)phenyl)pyrrolidin-2-one], the IC50 is over 501 nM in test [1] and under 100 nM in test [2].
On the same counts, the results for `CN1CC[C@@](O)(c2cccc(-c3nc(-c4ccnc(NCc5ncco5)n4)cs3)c2)C1=O` [Example 111, (R)-3-hydroxy-1-methyl-3-(3-(4-(2-((oxazol-2-ylmethyl)amino)pyrimidin-4-yl)thiazol-2-yl)phenyl)pyrrolidin-2-one] are over 501 nM and under 100 nM.
Taken in the same sequence, the figures for `CC(Nc1nccc(-c2csc(-c3cccc([C@]4(O)CCN(C)C4=O)c3)n2)n1)c1ccn(C)n1` (stereo partly drawn) [Example 112, (R)-3-hydroxy-1-methyl-3-(3-(4-(2-(((R,S)-1-(1-methyl-1H-pyrazol-3-yl)ethyl)amino)pyrimidin-4-yl)thiazol-2-yl)phenyl)pyrrolidin-2-one] were over 501 nM and under 100 nM.
On the same counts, the results for `Cc1cc(CNc2nccc(-c3csc(-c4cccc([C@]5(O)CCN(C)C5=O)c4)n3)n2)n[nH]1` [Example 113, (R)-3-hydroxy-1-methyl-3-(3-(4-(2-(((3-methyl-1H-pyrazol-5-yl)methyl)amino)pyrimidin-4-yl)thiazol-2-yl)phenyl)pyrrolidin-2-one] are over 501 nM and under 100 nM.
For `Cc1ccnc(CNc2nccc(-c3csc(-c4cccc([C@]5(O)CCN(C)C5=O)c4)n3)n2)n1` [Example 114, (R)-3-hydroxy-1-methyl-3-(3-(4-(2-(((4-methylpyrimidin-2-yl)methyl)amino)pyrimidin-4-yl)thiazol-2-yl)phenyl)pyrrolidin-2-one], the IC50 in test [1] was over 501 nM; in test [2] it was 100 to 500 nM.
Taken in the same sequence, the figures for `CN1CC[C@@](O)(c2cccc(-c3nc(-c4ccnc(NC5[C@@H]6COC[C@@H]56)n4)cs3)c2)C1=O` (stereo partly drawn) [Example 115, (R)-3-(3-(4-(2-(((1R,5R)-3-oxabicyclo[3.1.0]hexan-6-yl)amino)pyrimidin-4-yl)thiazol-2-yl)phenyl)-3-hydroxy-1-methylpyrrolidin-2-one] were over 501 nM and 100 to 500 nM.
On the same counts, the results for `CC(C)Cn1cnc(Nc2nccc(-c3csc(-c4cccc([C@]5(O)CCN(C)C5=O)c4)n3)n2)c1` [Example 116, (R)-3-hydroxy-3-(3-(4-(2-((1-isobutyl-1H-imidazol-4-yl)amino)pyrimidin-4-yl)thiazol-2-yl)phenyl)-1-methylpyrrolidin-2-one] are over 501 nM and under 100 nM.
As for `CN1CC[C@@](O)(c2cccc(-c3nc(-c4ccnc(Nc5cn(CCF)cn5)n4)cs3)c2)C1=O` [Example 117, (R)-3-(3-(4-(2-((1-(2-fluoroethyl)-1H-imidazol-4-yl)amino)pyrimidin-4-yl)thiazol-2-yl)phenyl)-3-hydroxy-1-methylpyrrolidin-2-one], the IC50 in test [1] is 100 to 500 nM; in test [2] it was under 100 nM.
For `Cc1c(CNc2nccc(-c3csc(-c4cccc([C@]5(O)CCN(C)C5=O)c4)n3)n2)cnn1C` [Example 118, (R)-3-(3-(4-(2-(((1,5-dimethyl-1H-pyrazol-4-yl)methyl)amino)pyrimidin-4-yl)thiazol-2-yl)phenyl)-3-hydroxy-1-methylpyrrolidin-2-one], the IC50 in test [1] was over 501 nM; in test [2], under 100 nM.
Taken in the same sequence, the figures for `CC(Nc1nccc(-c2csc(-c3cccc([C@]4(O)CCN(C)C4=O)c3)n2)n1)c1ccnn1C` (stereo partly drawn) [Example 119, (R)-3-hydroxy-1-methyl-3-(3-(4-(2-(((R,S)-1-(1-methyl-1H-pyrazol-5-yl)ethyl)amino)pyrimidin-4-yl)thiazol-2-yl)phenyl)pyrrolidin-2-one] were 100 to 500 nM and under 100 nM.
With `CN1CC[C@@](O)(c2cccc(-c3nc(-c4ccnc(NC5CCN(c6cnn(C)c6)C5)n4)cs3)c2)C1=O` (stereo partly drawn) [Example 120, (R)-3-hydroxy-1-methyl-3-(3-(4-(2-(((R,S)-1-(1-methyl-1H-pyrazol-4-yl)pyrrolidin-3-yl)amino)pyrimidin-4-yl)thiazol-2-yl)phenyl)pyrrolidin-2-one], the results for the IC50 in test [1] and in test [2] were over 501 nM and 100 to 500 nM, respectively.
Turning to `CC(Nc1nccc(-c2csc(-c3cccc([C@]4(O)CCN(C)C4=O)c3)n2)n1)c1cnn(C)c1` (stereo partly drawn) [Example 121, (R)-3-hydroxy-1-methyl-3-(3-(4-(2-(((R,S)-1-(1-methyl-1H-pyrazol-4-yl)ethyl)amino)pyrimidin-4-yl)thiazol-2-yl)phenyl)pyrrolidin-2-one], the values for the IC50 in test [1] and in test [2] were 100 to 500 nM and under 100 nM, respectively.
As to `CN1CC[C@@](O)(c2cccc(-c3nc(-c4ccnc(NC[C@@H]5CCCO5)n4)cs3)c2)C1=O` [Example 122, (R)-3-hydroxy-1-methyl-3-(3-(4-(2-((((S)-tetrahydrofuran-2-yl)methyl)amino)pyrimidin-4-yl)thiazol-2-yl)phenyl)pyrrolidin-2-one], the values for the IC50 in test [1] and in test [2] were over 501 nM and under 100 nM, respectively.
As for `CN1CC[C@@](O)(c2cccc(-c3nc(-c4ccnc(NC5CCCn6nccc65)n4)cs3)c2)C1=O` (stereo partly drawn) [Example 123, (R)-3-hydroxy-1-methyl-3-(3-(4-(2-(((R,S)-4,5,6,7-tetrahydropyrazolo[1,5-a]pyridin-4-yl)amino)pyrimidin-4-yl)thiazol-2-yl)phenyl)pyrrolidin-2-one], the IC50 is over 501 nM in test [1] and under 100 nM in test [2].
